Biological target: Dihydroorotate dehydrogenase (quinone), mitochondrial (Homo sapiens, UniProt Q02127)
Test: DCIP-linked Assay
Conditions: pH 8
Experimental: Recombinant human DHODH (final enzyme concentration between 20 and 60 nM in the assay well) were incubated at 37 °C in 50 mM Tris-HCl, 0.1% Triton X-100, 1 mM KCN, pH 8.0 with coenzyme Q10 (100 µM), and the tested compounds at different concentrations (final DMSO concentration 0.1% v/v). The reaction was initiatedby the addition of DHO (500 µM), and the reduction of DCIP (50 µM) was monitored through a decrease in absorbance at 650 nm.

Sequence of Dihydroorotate dehydrogenase (quinone), mitochondrial (Q02127 whole entry): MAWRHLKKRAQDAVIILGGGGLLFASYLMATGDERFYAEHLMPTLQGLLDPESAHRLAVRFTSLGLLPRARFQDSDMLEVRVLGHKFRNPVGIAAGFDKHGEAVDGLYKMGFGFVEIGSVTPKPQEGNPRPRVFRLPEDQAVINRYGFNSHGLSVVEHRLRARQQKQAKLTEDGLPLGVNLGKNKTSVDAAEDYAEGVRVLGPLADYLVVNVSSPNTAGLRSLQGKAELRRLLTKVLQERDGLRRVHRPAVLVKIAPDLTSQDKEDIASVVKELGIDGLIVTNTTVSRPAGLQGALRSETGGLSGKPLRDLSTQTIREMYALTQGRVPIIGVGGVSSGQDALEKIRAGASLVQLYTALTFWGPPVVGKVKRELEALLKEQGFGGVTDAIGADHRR

| Structure (SMILES) | IC50 [µM] |
| --- | --- |
| CC(C)C[C@@H]1NC(=O)[C@@H]2CCCN2C1=O [Cyclo L-Pro-L-Leu (Fr. 1-6)] | > 50 |
| CC(C)[C@@H]1NC(=O)[C@@H]2CCCN2C1=O [Cyclo L-Pro-L-Val (Fr. 2-1)] | > 50 |

Further lines, results first:

| IC50 [µM] | Structure (SMILES) |
| --- | --- |
| > 50 | CC[C@H](C)[C@@H]1NC(=O)[C@@H]2CCCN2C1=O [Cyclo L-Pro-L-Ile (Fr. 1-5)] |
| > 50 | O=C1N[C@@H](Cc2ccccc2)C(=O)N2CCC[C@@H]12 [Cyclo L-Pro-L-Phe (Fr. 2-2)] |
| 0.773 | O=C1N[C@@H](Cc2ccccc2)C(=O)N2C[C@H](O)C[C@@H]12 [Cyclo L-OH-Pro-L-Phe (Fr. 1-4)] |

Source: BindingDB's records for doi:10.1111/cbdd.12530 (Chinese Academy of Sciences, 2015)
